Experiments:
Format in all cases: cell-based, Chinese Hamster
[1] = tested on: adalimumab-producing CHO cell line; experiment: Example 1 oligosaccharide analysis, batch shake flasks, CDM GIA-1
Description: The studies were performed in either a batch process in shake flasks or a fed-batch process in 3 L bioreactors.
Growth and production media for the adalimumab-producing CHO cell line were prepared using a proprietary Life Technologies Gibco chemically defined media, GIA-1. […] All media were filtered through Corning 0.5 L or 1 L filter systems 0.22 μm Poly(Ether Sulfone) (PES) and stored at 4° C. until use.
The cell line utilized for both studies was generated from the adalimumab-producing CHO cell utilized in Example 3 by adapting it to chemically defined GIA-1 media for 7 (2 to 3 day each) passages in a combination of 250 mL and 500 mL Corning vented non-baffled shake flasks before freezing.
Upon thaw, for the batch shake flask study, cells were expanded for 3 to 5 (2 to 3 day each) passages in a combination of 250 mL and 500 mL Corning vented non-baffled shake flasks. Production cultures were initiated in duplicate 500 mL Corning vented non-baffled shake flasks (200 mL working volume) at an initial viable cell density (VCD) of approximately 0.5×10^6 cells/mL. Cultures were maintained on orbital shakers at 110 revolutions per minute (RPM) in a dry incubator at 35° C. and 5% CO2. The shake flask study was run in an extended batch mode by feeding a glucose solution (1.25% (v/v) of 40% solution) when the media glucose concentration fell below 3 g/L.
(§1) For all studies with CHO cell lines described throughout this invention, samples were collected daily and measured for cell density and viability using a Cedex cell counter. Retention samples for titer analysis via Poros A method were collected by centrifugation at 12,000 RPM for 5 min when the culture viability began declining. The cultures were harvested by collecting 125 mL aliquots and centrifuging at 3,000 RPM for 30 min when culture viability was near or below 50%. All supernatants were stored at −80° C. until analysis.
(§2) For all studies, the harvest samples were Protein A purified and prepared for the oligosaccharide assay using the following procedures. As a first step in the process of establishing the identity and quantifying the oligosaccharides, they are released from the protein by enzymatic digestion with N-glycanase. Once the glycans are released, the free reducing end of each glycan is labeled by reductive amination with a fluorescent tag, 2-aminobenzamide (2-AB). The resulting labeled glycans are separated by normal-phase HPLC (NP-HPLC) in acetonitrile: 50 mM ammonium formate, pH 4.4, and detected by a fluorescence detector. Quantitation is based on the relative area percent of detected sugars. Throughout this invention, the relative area percentages of the agalactosyl fucosylated biantennary oligosaccharides, denoted as NGA2F+NGA2F-GlcNAc sum, and the galactose-containing fucosylated biantennary oligosaccharides NA1F+NA2F sum are reported and discussed.
Galactose was supplemented at the following levels in production media: 0, 10, 20, 40, and 100 mM. […] Culture growth, productivity, and product quality data for control cultures is the average of the 3 experiments.

[2] = tested on: adalimumab-producing CHO cell line; experiment: Example 3 oligosaccharide analysis, hydrolysate-based media, batch shake flasks
Description: as §1, §2
All media were filtered through Corning 0.5 L or 1 L filter systems (0.22 μm PES) and stored at 4° C. until use.
Production cultures were initiated in duplicate 500 mL Corning vented non-baffled shake flasks (200 mL working volume) at an initial VCD of approximately 0.5×10^6 cells/mL. Cultures were maintained on orbital shakers at 110 RPM in a dry incubator at 35° C. and 5% CO2. A glucose solution (1.25% (v/v) of 40% solution) was fed when the media glucose concentration fell below 3 g/L.

[3] = tested on: adalimumab-producing CHO cell line #3; experiment: Example 5 oligosaccharide analysis, CDM GIA-1, fed-batch 3 L bioreactors
Description: as §1, §2
Growth and production media for the adalimumab-producing CHO cell line #3 were prepared using the proprietary Life Technologies Gibco chemically defined media, GIA-1.
Upon thaw, cells were expanded in Corning vented non-baffled shake flasks maintained on orbital shakers at 140 RPM, and in 10 L cell bags (2 L working volume) maintained at 25 RPM, 7° angle, and 0.25 SLPM airflow in a dry incubator at 36° C. and 5% CO2. Production cultures were initiated in 3 L bioreactors (1.4 L initial working volume) at 36° C., 30% dissolved oxygen, 200 RPM, and pH 6.9±0.2. A fixed split ratio of cells to media of 1:6.7 was utilized to initiate the production stage cultures. A temperature shift was performed when the culture VCD reached a value higher than 5×10^6 cells/mL. The chemically-defined feed from Life Technologies Gibco JCL-5 was added as follows: 4% (v/v)—day 2, 6%—day 4, 8%—day 6, 10%—day 8, and 10%—day 10. […] Bioreactors were harvested at a viability of approximately 50% or on production day 17, whichever condition occurred first.
Galactose was supplemented at 0 and 30 mM concentrations in both production and feed media.

[4] = tested on: CHO cell line producing mAb #2; experiment: Example 8 oligosaccharide analysis, CDM GIA-1, fed-batch 3 L bioreactors
Description: as §1, §2
Growth and production media for the mAb #2 producing CHO cell line were prepared using the proprietary Life Technologies Gibco chemically defined media, GIA-1.
Upon thaw, cells were expanded in Corning vented non-baffled shake flasks maintained on orbital shakers at 140 RPM, and in 10 L cell bags (2 L working volume) maintained at 25 RPM, 7° angle, 0.25 SLPM airflow in a dry incubator at 36° C. and 5% CO2. Production cultures were initiated in 3 L bioreactors (1.5 L initial working volume) at 36° C., 25% dissolved oxygen, 200 RPM, and pH 7.0. The chemically-defined feed from Life Technologies Gibco JCL-5 was added as follows: 3% (v/v)—day 3, 5%—day 5, 7%—day 7, 10%—day 9, and 10%—day 11. […] Bioreactors were harvested at viability of approximately 70% or below or on production day 15, whichever condition occurred first.
Galactose was supplemented at 0, 15, 30, and 60 mM concentrations in both production and feed media.

[5] = 100 μM manganese chloride alone
[6] = 0.2 μM manganese chloride alone
[7] = manganese chloride alone, range 0 to 75 μM

Compound: Manganese (II) Chloride [manganese chloride]
- decrease in the NGA2F+NGA2F-GlcNac sum ([1]; 40 μM manganese chloride alone): 6%
- maximum change in the NA1F+NA2F oligosaccharides [1, 5]: 8%
- maximum change in the NGA2F+NGA2F-GlcNac [1, 5]: 9%
- decrease in the NGA2F+NGA2F-GlcNac sum ([2]; manganese chloride alone, range 0 to 40 μM, within assay variability): approximately 1%
- decrease in the NGA2F+NGA2F-GlcNac sum [3, 6]: 15%
- increase in the NA1F+NA2F sum [3, 6]: 16%
- increase in the NA1F+NA2F oligosaccharides ([3]; 1 μM manganese chloride alone): 28%
- maximum decrease in the NGA2F+NGA2F-GlcNac ([3]; 1 μM manganese chloride alone): 26%
- decrease in the NGA2F+NGA2F-GlcNac sum ([4]; 25 μM manganese chloride alone): 10%
- decrease in the NGA2F+NGA2F-GlcNac sum ([4]; 50 μM manganese chloride alone): 18%
- maximum decrease in the NGA2F+NGA2F-GlcNac sum [4, 7]: 18%
- maximum increase in the NA1F+NA2F sum [4, 7]: 16%

Compound: O=C[C@H](O)[C@@H](O)[C@@H](O)[C@H](O)CO [galactose, D(+)Galactose]
- decrease in the NGA2F+NGA2F-GlcNac sum ([1]; 40 mM galactose alone): 6%
- maximum change in the NA1F+NA2F oligosaccharides ([1]; 100 mM galactose alone): 7%
- maximum change in the NGA2F+NGA2F-GlcNac ([1]; 100 mM galactose alone): 7%
- maximum decrease in the NGA2F+NGA2F-GlcNac sum ([2]; galactose alone up to 40 mM): 4%
- maximum increase in the NA1F+NA2F sum ([2]; galactose alone up to 40 mM): 4%
- decrease in the NGA2F+NGA2F-GlcNac sum ([3]; 30 mM galactose alone): 4%
- increase in the NA1F+NA2F sum ([3]; 30 mM galactose alone): 3%
- decrease in the NGA2F+NGA2F-GlcNac sum ([4]; 15 mM galactose alone): 7%
- decrease in the NGA2F+NGA2F-GlcNac sum ([4]; 30 mM galactose alone): 12%
- maximum decrease in the NGA2F+NGA2F-GlcNac sum ([4]; galactose alone up to 60 mM): 12%
- maximum increase in the NA1F+NA2F sum ([4]; galactose alone up to 60 mM): 11%
